This note sets out measurements from ChEMBL document CHEMBL3352000, “Discovery of (R)-1-(7-chloro-2,2-bis(fluoromethyl)chroman-4-yl)-3-(3-methylisoquinolin-5-yl)urea (A-1165442): a temperature-neutral transient receptor potential vanilloid-1 (TRPV1) antagonist with analgesic efficacy” (J Med Chem, 2014).

Calls of active or inactive are those of the source. No cut-off for these calls is given here.

Data set [1] concerns the target T1, Transient receptor potential cation channel subfamily V member 1 (Homo sapiens, UniProt Q8NER1). Briefly: Antagonist activity against human TRPV1 expressed in HEK293 cells assessed as capsaicin-induced calcium flux by FLIPR assay. The data set is classed as cell-based.
The target of data set [2] is T1, Transient receptor potential cation channel subfamily V member 1. Put plainly: Antagonist activity against human TRPV1 expressed in HEK293 cells assessed as ph 5.0-induced calcium flux at 30 uM by FLIPR assay. The class given is cell-based.
For data set [3], the species on record is Rattus norvegicus. Briefly: Induction of hyperthermia in rat assessed as increase in body temperature measured every 5 mins during study period by telemetry. The conditions noted are these: in vivo. The data set is classed as organism-based.
Another data set addresses Cytochrome P450 3A4 (Homo sapiens, UniProt P08684). Briefly: Inhibition of CYP3A4 in human liver microsomes using 7-benzyloxyquiniline substrate and NADPH incubated up to 2 hrs.
The target of a further data set is Cytochrome P450 2D6 (Homo sapiens, UniProt P10635). Put plainly: Inhibition of CYP2D6 in human liver microsomes using AMMC substrate and NADPH incubated up to 2 hrs. The data set is classed as ADME.
Data set [4] can be described thus: Intrinsic clearance in human liver microsomes. The data set is classed as ADME. The conditions noted are these: read-out: CLH.
The target of data set [5] is T1, Transient receptor potential cation channel subfamily V member 1. Briefly: Antagonist activity against human TRPV1 expressed in HEK293 cells assessed as NADA-induced calcium flux by FLIPR assay. The data set is classed as cell-based.
The target in data set [6] is Transient receptor potential cation channel subfamily V member 1 (Rattus norvegicus) (UniProt O35433). Put plainly: Antagonist activity against rat TRPV1 expressed in HEK293 cells assessed as capsaicin-induced calcium flux by FLIPR assay. The class given is cell-based.
The target is the same in data set [7]. Briefly: Antagonist activity against TRPV1 in rat dorsal root ganglion by whole cell patch clamp electrophysiology method. The data set is classed as tissue-based.
For data set [8] the target is unchanged. Briefly: Antagonist activity against rat TRPV1 expressed in HEK293 cells assessed as pH 5.0-induced calcium flux by FLIPR assay. The data set is classed as cell-based.
The nature of data set [9]: Elimination half life in Sprague-Dawley rat at 10 umol/kg, iv. The data set is classed as ADME, organism-based. The conditions noted are these: in vivo, read-out: beta t1/2 (converted).
Data set [10] in a line: Volume of distribution at steady state in Sprague-Dawley rat at 10 umol/kg, iv. The class given is ADME, organism-based. The conditions noted are these: in vivo, read-out: Vdss.
A short description of data set [11]: AUC in Sprague-Dawley rat at 10 umol/kg, iv. The class given is ADME, organism-based. The conditions noted are these: plasma.
Data set [12] can be described thus: Plasma clearance in Sprague-Dawley rat at 10 umol/kg, iv. The data set is classed as ADME, organism-based.
Data set [13] is described as follows: Elimination half life in Sprague-Dawley rat at 10 umol/kg, po. The class given is ADME, organism-based. The conditions noted are these: in vivo, read-out: beta t1/2 (converted).
The nature of data set [14]: Cmax in Sprague-Dawley rat at 10 umol/kg, po. The data set is classed as ADME, organism-based. On the set-up: dose 10 umol/kg, route oral. The conditions noted are these: in vivo.
Data set [15] is described as follows: Oral bioavailability in Sprague-Dawley rat at 10 umol/kg. The class given is ADME, organism-based. As to conditions: in vivo.
The nature of data set [16]: AUC in Sprague-Dawley rat at 10 umol/kg, po. As to conditions: plasma. The class given is ADME, organism-based.
The nature of data set [17]: Plasma protein binding in Sprague-Dawley rat at 10 umol/kg, po. The data set is classed as ADME, cell-free. As to conditions: read-out: PPB (converted).
A short description of data set [18]: Ratio of drug level in brain to plasma of Sprague-Dawley rat at 10 umol/kg, po. The data set is classed as ADME. The conditions noted are these: read-out: BPR.
For data set [19], the species on record is Rattus norvegicus. Briefly: Reduction in capsaicin-induced nocifensive behavior in rat capsaicin flinch model. The class given is functional.
The species named for data set [20] is Rattus norvegicus. Put plainly: Reduction in capsaicin-induced nocifensive behavior in rat assessed as plasma concentration causing reduction in nocifensive behavior. The class given is functional. The conditions noted are these: read-out: ED50 (the source's name).
The species named for data set [21] is Rattus norvegicus. Put plainly: Analgesic activity in monoiodoacetate-induced osteoarthritis acute rat pain model measured 1 hr post dose. The data set is classed as functional.
Data set [22] has as its system Rattus norvegicus. Put plainly: Analgesic activity in monoiodoacetate-induced osteoarthritis sub-chronic rat pain model dosed twice daily for 12 days. The class given is functional.
Data set [23] concerns Rattus norvegicus. Put plainly: Analgesic activity in monoiodoacetate-induced osteoarthritis sub-chronic rat pain model dosed twice daily for 12 days measured 24 hrs after dosing completion. The data set is classed as functional.
The subject of data set [24] is Rattus norvegicus. Briefly: Increase in core body temperature in conscious rat at 100 umol/kg, po administered as single dose measured every 5 mins over 8 hrs study period by telemetry. As to conditions: in vivo. The data set is classed as ADME, organism-based.
For data set [25], the system named is Canis familiaris. Put plainly: Increase in core body temperature in beagle dog at 100 umol/kg, po administered as single dose measured every 5 mins over 6 hrs study period by telemetry. The data set is classed as ADME, organism-based, Canis lupus familiaris. As to conditions: in vivo.
In data set [26] the test system is Rattus norvegicus. Briefly: Increase in core body temperature in conscious rat at 30 umol/kg, po administered as single dose measured every 5 mins over study period by telemetry. The data set is classed as ADME, organism-based. The conditions noted are these: in vivo.
The test system of data set [27] is Canis familiaris. Briefly: Increase in core body temperature in beagle dog at 30 umol/kg, po administered as single dose measured every 5 mins over study period by telemetry. The data set is classed as ADME, organism-based, Canis lupus familiaris. As to conditions: in vivo.
Data set [28] is filed under the species Rattus norvegicus. Put plainly: Reduction in capsaicin-induced nocifensive behavior in rat assessed at plasma concentration of 10 to 10000 ng/ml. The data set is classed as functional.

Cytochrome P450 3A4, sequence (P08684 whole entry): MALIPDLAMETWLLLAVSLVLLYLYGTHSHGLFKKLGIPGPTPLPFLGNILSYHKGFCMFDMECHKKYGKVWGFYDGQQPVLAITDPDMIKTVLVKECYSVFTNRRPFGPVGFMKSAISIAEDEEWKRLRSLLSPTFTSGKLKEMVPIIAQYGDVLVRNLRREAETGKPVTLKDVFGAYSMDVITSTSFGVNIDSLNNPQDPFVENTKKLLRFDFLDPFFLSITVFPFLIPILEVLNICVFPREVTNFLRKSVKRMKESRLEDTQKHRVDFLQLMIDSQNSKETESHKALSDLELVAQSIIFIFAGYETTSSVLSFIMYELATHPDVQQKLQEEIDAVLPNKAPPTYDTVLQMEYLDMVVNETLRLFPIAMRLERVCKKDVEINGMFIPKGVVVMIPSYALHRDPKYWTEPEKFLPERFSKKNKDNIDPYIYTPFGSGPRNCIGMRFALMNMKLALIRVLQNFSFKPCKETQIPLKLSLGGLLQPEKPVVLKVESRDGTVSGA
T1 sequence (Q8NER1 whole entry): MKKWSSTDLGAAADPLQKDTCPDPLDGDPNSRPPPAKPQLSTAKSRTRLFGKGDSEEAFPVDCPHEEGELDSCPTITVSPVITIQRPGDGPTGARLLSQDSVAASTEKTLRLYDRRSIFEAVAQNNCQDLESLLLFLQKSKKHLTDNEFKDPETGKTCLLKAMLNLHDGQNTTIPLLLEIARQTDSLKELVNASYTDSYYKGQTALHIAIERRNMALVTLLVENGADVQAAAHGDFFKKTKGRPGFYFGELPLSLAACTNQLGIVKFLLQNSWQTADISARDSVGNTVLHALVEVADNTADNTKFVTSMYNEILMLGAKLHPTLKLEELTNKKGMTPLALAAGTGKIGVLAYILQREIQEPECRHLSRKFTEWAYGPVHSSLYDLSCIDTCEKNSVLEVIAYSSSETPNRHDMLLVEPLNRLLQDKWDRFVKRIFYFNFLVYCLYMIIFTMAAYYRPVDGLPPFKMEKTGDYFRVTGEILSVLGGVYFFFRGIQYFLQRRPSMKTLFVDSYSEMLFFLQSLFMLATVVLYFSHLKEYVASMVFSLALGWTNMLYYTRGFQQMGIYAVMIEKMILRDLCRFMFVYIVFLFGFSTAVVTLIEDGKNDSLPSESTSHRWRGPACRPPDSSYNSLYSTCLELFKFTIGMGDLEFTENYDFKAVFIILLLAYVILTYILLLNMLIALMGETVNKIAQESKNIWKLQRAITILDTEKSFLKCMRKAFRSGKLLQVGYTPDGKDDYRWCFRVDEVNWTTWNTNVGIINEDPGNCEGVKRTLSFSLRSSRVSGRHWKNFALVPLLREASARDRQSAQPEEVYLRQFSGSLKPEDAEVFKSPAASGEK
Cytochrome P450 2D6, sequence (P10635 whole entry): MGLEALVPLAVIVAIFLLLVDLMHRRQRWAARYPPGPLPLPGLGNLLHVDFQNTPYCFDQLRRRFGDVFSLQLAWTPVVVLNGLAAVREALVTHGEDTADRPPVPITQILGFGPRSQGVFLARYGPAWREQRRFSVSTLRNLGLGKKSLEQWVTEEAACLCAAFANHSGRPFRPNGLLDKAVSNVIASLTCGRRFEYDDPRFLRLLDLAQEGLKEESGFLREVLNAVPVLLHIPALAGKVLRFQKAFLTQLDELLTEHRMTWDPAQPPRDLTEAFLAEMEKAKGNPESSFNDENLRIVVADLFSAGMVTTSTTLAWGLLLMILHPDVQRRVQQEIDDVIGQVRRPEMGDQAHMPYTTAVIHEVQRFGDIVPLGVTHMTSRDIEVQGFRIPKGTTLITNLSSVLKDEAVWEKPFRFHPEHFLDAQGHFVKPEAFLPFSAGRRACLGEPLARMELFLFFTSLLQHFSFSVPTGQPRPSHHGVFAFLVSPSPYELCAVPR
Transient receptor potential cation channel subfamily V member 1 (Rattus norvegicus), sequence (O35433 whole entry): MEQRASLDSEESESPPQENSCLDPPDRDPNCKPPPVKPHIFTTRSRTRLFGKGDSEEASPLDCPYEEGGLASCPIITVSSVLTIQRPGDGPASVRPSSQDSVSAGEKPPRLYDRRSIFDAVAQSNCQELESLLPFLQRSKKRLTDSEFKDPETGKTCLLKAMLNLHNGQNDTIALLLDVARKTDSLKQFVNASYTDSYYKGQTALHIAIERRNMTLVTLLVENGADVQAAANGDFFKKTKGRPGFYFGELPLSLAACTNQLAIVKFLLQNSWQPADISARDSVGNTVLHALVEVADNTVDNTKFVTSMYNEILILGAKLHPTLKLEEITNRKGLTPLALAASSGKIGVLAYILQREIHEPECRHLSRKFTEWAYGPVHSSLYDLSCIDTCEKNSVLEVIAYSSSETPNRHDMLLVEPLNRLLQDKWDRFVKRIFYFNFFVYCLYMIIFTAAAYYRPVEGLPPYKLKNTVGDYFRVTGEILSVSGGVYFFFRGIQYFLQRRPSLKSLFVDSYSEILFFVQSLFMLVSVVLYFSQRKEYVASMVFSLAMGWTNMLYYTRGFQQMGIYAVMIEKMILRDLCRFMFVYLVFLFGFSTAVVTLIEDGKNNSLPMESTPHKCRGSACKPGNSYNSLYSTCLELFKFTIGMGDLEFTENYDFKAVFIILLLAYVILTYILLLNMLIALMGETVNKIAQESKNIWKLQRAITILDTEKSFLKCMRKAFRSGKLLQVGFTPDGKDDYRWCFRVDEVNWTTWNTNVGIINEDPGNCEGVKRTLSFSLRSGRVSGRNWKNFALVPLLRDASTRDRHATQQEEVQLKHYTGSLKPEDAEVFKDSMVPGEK

For the compound `CC1(C)C[C@@H](NC(=O)Nc2cccc3cnccc23)c2ccc(F)cc2O1`, the half-maximal inhibitory concentration (IC50) in [1] is 4 nM; against Cytochrome P450 3A4, 660 nM; against Cytochrome P450 2D6 it was under 0.08 µM. In data set [2], the inhibition came out at 61%. Besides, the deltaT in the data set listed under Rattus norvegicus [3] is -0.5 °C. Further, the microsomal CLint in [4] came out at 210 µL/min/mg. Besides, the inhibition result in data set [5] was “Active”.
Consider `Cc1cc2c(NC(=O)N[C@@H]3CC(CF)(CF)Oc4cc(Cl)ccc43)cccc2cn1`, for which the IC50 in data set [1] stood at 9 nM; at Cytochrome P450 2D6, 4.9 µM. For the same compound, in data set [2], the inhibition was 62%. In addition, the deltaT in the data set filed under Rattus norvegicus [3] came out at 0 °C. Moreover, the microsomal CLint in data set [4] was 98 µL/min/mg. Further, the inhibition result in data set [6] and in [7] was “Active” each time. Also, the inhibition result in data set [8] is “inactive”. Further, the half-life in data set [9] is 102 min; in data set [13], 114 min. Further, the Vd in data set [10] came out at 0.8 L/kg. Besides, the AUC in data set [11] is 9400 ng·h/mL; in data set [16], 4600 ng·h/mL. The compound also had a clearance in data set [12] of 8.33 mL/min/kg. In addition, the highest level in [14] (Cmax) was 1300 ng/mL. This compound showed a bioavailability in [15] of 48%. Moreover, the fraction unbound in data set [17] is 0.006. The Kp in data set [18] turned out to be 0.06. The ED50 in the data set listed under Rattus norvegicus [19] stood at 9.5 µmol/kg; in the data set filed under Rattus norvegicus [21] (Rattus norvegicus, 1 h), 35 µmol/kg; in the data set with Rattus norvegicus [22] (Rattus norvegicus, 288 h) it was 11 µmol/kg. The EC50 in the data set filed under Rattus norvegicus [20] is 970 nM. Further, the Efficacy worked out at 68% in the data set listed under Rattus norvegicus [21], 78% in the data set with Rattus norvegicus [22], 55% with Rattus norvegicus [23] and 58% in the data set filed under Rattus norvegicus [28]. Also, the Activity entry with Rattus norvegicus [24] is listed as “Non-toxic”; with Canis familiaris [25], “Non-toxic”; in the data set with Rattus norvegicus [26], “Toxic”; with Canis familiaris [27], “Toxic”.
Regarding `CCC1(CC)C[C@@H](NC(=O)Nc2cccc3cnc(C)cc23)c2cccc(F)c2O1`, the IC50 was 34 nM in data set [1], over 20000 nM at Cytochrome P450 3A4 and over 20 µM on Cytochrome P450 2D6. Moreover, the inhibition in data set [2] was 59%. Besides, the deltaT in the data set filed under Rattus norvegicus [3] was -0.5 °C. Further, the microsomal CLint in data set [4] was found to be 430 µL/min/mg.
In the case of `CC1(C)C[C@@H](NC(=O)Nc2cccc3cnccc23)c2cc(F)ccc2O1`, the figures for the IC50 (in [1]; at Cytochrome P450 3A4; at Cytochrome P450 2D6) were 2 nM, 1000 nM and under 0.08 µM, respectively. In data set [2], the inhibition worked out at 70%. Also, the deltaT in the data set filed under Rattus norvegicus [3] was 0 °C. The microsomal CLint in data set [4] amounted to 180 µL/min/mg. The inhibition entry in data set [5] is “Active”.
